From US8748407B2 (The Research Foundation for the State University of New York, priority 2010, dated 2014)

Legend:
Format in all cases: cell-based
[1] = target: T1, GluK2 (Rattus norvegicus, UniProt P42260); test: Whole-cell current recording, kainate receptor GluK2
T1 construct: expressed in transfected cells; host or cells: HEK-293S
Source text: (§1) The original cDNAs in pBlueScript encoding rat GluA1, 2 and 3 AMPA receptors and GluK2 kainate receptor were kindly provided by Steve Heinemann. The GluA4 DNA plasmid was kindly provided by Peter Seeburg. The GluK1 plasmid was kindly provided by Geoffrey Swanson. The cDNAs of all three NMDA receptor subunits were gifts from John Woodward. All DNA plasmids were propagated using Escherichia coli host (DH5α) and purified using QIAGEN DNA purification kits.
(§2) All of the receptors were transiently expressed in HEK-293S cell. HEK-293S cells were maintained in Dulbecco's modified Eagle's medium (DMEM) supplemented with 10% fetal bovine serum and 1% penicillin in a 37° C., 5% CO2, humidified incubator. Receptors were transiently transfected by using calcium phosphate or lipofectamine 2000 (Invitrogen). The DNA plasmids encoding green fluorescent protein (GFP) and T-antigen (TAg) were cotransfected in HEK-293 S cells. […]
(§3) The procedure for whole-cell current recording to assay the inhibitory property of an RNA aptamer is known to those of skill in the art and has been previously described^7. […] The whole-cell current was recorded using an Axopatch-200B amplifier at a cutoff frequency of 2-20 kHz by a built-in, eight-pole Bessel filter and digitized at 5-50 kHz sampling frequency using a Digidata 1322A from Axon Instruments (Molecular Devices, Sunnyvale, Calif.). […]

[2] = target: T2, GluA1 (Rattus norvegicus, UniProt P19490); test: Whole-cell current recording, GluA1
T2 construct: expressed in transfected cells; host or cells: HEK-293S
Source text: as §1, §2, §3

[3] = target: T3, GluN1a/2B (Rattus norvegicus, UniProt P35439+Q00960); test: Whole-cell current recording, NMDA receptor GluN1a/2B
T3 construct: expressed in transfected cells; host or cells: HEK-293S
Source text: as §1, §2, §3

[4] = test system: GluK1; test: Whole-cell current recording, kainate receptor GluK1
Source text: as §1, §2, §3

T2 sequence (P19490 19-907): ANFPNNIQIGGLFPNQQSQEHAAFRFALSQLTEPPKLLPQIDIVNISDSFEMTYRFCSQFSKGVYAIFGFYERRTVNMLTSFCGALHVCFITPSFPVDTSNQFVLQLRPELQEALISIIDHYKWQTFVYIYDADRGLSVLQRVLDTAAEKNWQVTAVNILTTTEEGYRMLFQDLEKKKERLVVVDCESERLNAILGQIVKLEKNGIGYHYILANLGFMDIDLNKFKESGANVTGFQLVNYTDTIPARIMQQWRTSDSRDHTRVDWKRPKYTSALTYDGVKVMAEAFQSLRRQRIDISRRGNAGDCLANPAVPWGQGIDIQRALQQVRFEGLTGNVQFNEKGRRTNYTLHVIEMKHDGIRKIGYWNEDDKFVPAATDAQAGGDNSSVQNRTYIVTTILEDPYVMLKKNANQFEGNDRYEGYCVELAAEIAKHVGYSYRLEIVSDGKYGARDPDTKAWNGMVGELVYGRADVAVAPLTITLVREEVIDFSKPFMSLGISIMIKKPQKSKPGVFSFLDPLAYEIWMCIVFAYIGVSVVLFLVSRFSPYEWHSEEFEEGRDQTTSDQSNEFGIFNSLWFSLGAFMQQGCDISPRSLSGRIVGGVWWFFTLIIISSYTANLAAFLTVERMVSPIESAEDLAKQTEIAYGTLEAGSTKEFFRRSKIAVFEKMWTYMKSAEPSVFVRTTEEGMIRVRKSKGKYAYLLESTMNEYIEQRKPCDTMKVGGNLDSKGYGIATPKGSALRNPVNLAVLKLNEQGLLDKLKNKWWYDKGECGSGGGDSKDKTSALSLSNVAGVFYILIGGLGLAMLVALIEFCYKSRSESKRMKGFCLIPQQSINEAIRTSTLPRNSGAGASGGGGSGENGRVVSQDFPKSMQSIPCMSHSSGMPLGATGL
T1 sequence (P42260 32-908): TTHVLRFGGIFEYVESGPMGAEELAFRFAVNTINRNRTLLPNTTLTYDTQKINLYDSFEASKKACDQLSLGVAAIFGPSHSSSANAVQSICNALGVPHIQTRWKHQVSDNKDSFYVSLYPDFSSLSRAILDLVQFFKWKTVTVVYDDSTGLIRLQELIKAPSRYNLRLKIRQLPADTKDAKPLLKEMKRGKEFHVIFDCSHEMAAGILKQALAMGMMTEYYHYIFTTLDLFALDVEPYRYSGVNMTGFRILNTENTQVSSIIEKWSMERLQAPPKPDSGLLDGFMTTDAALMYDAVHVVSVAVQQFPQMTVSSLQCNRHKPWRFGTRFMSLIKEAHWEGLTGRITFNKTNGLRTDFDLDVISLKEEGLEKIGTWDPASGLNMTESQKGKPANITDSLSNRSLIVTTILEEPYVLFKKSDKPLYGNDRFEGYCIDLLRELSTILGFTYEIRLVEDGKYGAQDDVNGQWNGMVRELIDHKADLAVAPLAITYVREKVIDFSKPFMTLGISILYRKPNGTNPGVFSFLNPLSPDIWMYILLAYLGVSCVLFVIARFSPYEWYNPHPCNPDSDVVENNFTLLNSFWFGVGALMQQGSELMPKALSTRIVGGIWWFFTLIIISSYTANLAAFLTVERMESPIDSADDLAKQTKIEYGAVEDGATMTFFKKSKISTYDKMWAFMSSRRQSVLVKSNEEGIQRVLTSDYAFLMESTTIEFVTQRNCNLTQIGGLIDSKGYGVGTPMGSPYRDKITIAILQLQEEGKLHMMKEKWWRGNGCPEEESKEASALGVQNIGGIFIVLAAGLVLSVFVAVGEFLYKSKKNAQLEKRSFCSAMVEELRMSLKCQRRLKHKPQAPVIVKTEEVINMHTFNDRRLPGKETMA
T3 sequence (Q00960 27-1482, other chains not shown): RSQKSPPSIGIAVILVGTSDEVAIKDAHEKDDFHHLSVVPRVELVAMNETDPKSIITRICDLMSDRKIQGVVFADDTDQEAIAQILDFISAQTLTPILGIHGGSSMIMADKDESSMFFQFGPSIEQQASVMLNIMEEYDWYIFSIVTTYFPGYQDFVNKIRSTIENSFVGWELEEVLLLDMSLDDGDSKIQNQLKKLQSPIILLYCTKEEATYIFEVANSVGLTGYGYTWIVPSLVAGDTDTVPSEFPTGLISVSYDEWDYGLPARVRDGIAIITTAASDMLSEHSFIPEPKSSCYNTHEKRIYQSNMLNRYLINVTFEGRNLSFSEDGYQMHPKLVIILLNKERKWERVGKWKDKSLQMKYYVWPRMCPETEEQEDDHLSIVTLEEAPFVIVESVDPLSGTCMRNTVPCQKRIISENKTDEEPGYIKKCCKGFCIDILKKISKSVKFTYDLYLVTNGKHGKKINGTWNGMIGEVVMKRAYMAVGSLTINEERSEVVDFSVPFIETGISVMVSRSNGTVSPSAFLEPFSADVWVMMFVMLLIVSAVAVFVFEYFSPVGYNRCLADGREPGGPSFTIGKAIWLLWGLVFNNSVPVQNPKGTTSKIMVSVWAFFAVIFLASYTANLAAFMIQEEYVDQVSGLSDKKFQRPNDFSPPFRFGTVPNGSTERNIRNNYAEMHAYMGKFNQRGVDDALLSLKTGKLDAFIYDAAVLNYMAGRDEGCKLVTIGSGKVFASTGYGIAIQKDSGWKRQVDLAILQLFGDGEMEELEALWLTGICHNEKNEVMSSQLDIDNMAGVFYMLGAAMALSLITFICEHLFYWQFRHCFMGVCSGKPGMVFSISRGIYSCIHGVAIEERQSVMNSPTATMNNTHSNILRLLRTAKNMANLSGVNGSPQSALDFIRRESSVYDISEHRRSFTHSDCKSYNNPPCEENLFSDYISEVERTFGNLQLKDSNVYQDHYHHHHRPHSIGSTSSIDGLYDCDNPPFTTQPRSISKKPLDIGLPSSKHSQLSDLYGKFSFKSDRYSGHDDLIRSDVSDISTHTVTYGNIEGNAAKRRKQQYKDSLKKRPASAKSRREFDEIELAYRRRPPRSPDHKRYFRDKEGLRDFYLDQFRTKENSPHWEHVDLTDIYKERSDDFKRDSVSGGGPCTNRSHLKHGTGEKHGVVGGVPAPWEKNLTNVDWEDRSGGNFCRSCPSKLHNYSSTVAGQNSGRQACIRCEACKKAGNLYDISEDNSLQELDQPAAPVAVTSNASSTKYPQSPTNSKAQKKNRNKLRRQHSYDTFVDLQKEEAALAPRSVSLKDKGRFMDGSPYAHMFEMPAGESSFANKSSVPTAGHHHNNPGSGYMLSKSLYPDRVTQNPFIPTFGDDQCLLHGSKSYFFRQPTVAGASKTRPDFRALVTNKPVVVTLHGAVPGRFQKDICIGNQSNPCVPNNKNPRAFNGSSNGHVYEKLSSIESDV

## AG56: 56-nucleotide truncated version of AG1407, RNA aptamer (GGGAGAUUGUGAAGCGUAGGCUCGAGUUUGUCCCGCGAGCCAAAGAUUCCAGACCC; RNA, backbone not given here)
[1]
  effect on kainate receptor channel: did not affect
[2]
  inhibition of the closed-channel conformation: no inhibitory effect
  inhibition of the open-channel conformation: similarly inhibited the open-channel conformation
[3]
  effect on NMDA receptor channel: did not affect
[4]
  effect on kainate receptor channel: did not affect
